Key:
[1] = system: A431 cells which overexpresses EGFR; test: Flow cytometry assay of binding to A431 cells; assay type: cell-based; conditions: 100 nM, 30 min on ice; FIG. 5b and c (confocal and flow cytometry)
Description: FIG. 20 depicts the fluorescence intensity (measured by flow cytometry, λex=488 nm) of untreated A431 and MCF7 cells (ctrl) shown in dark grey fill (Blank), and cells treated with either GFP (100 nM, 30 min), or with ZEGFR-Fc-GFP (100 nM, 30 min) (shown by arrow), respectively. Forward scatter (FSC-A) versus side scatter (SSC-A) were used to gate intact cells.
To study binding capacities of ZEGFR-Fc-GFP, A-431 (ATCC, USA) and MCF-7 (ATCC, US) live cells were washed three times with PBS (HyClone, USA), trypsinized by 0.05% Trypsin-EDTA (Gibco, USA), and then resuspended in chilled DMEM (Gibco, USA) with 10% FBS (Gibco, USA). One million cells of each cell line were then incubated with ZEGFR-Fc-GFP (100 nM) and GFP (100 nM) on ice for 30 min. After incubation, the cells were washed with chilled PBS for three times and analyzed by the Fortessa X-20 flow cytometer (BD, USA). The cytometer was set to record 10,000 events per sample, to excite the fluorophore with 488 nm laser, and to collect emitting fluorescent signals in 530/30 nm. The generated raw data were analyzed by Flowjo™ 10 (BD, USA).

[2] = system: EGFR-positive A431 cells; test: Live cell confocal imaging of binding to A431 cells; assay type: cell-based; conditions: confocal fluorescence microscopy, 100 nM, 30 min on ice; FIG. 21
Description: ZEGFR-FC-GFP staining of the membrane was much brighter than that for GFP when the top left panel of each block is compared. The plasma membrane was stained with PKH26 red-fluorescent dye and is shown in the lower left panel and merged image of each block. Scale bar=20 μm.
To visualize ZEGFR-Fc-GFP binding activities, A431 and MCF-7 cells were seeded on an 8-well chamber slide (ibidi, USA) and incubated at 37° C. under 5% CO2 overnight. The cells were stained with 2 μM PKH26 red-fluorescent dye (Sigma, USA) for 10 min at 37° C. The stained cells were then incubated with ZEGFR-Fc-GFP (100nM) and GFP (100nM) on ice for 30 min. After incubation, the cells were washed with chilled PBS for three times and fixed with cold 4% formaldehyde for 15 min. The fixed cells were imaged by the LSM 980 confocal microscope (Zeiss, Germany). Microscopic key settings are as follows: 1) excitation laser wavelengths: 488 nm and 561 nm; 2) emission fillers: 507-552 nm and 575-620 nm; 3) imaging mode: Z-stack. The 3D Z-stack images were processed into 2D images by the technique MIP (maximum intensity projection) using the Zen software (Zeiss, Germany).

Substance: ZEGFR-Fc-GFP: dual-ligated product of dimeric fusion protein ZEGFR-Fc-NQL (affibody ZEGFR and IgG Fc domain) with GI-GGGSGGGS-GFP
- binding towards A431 cells [1]: specific binding
- staining of the membrane compared with GFP [2]: much brighter

— patent US20250270610A1, “Improving the Efficiency of PAL-Catalyzed Protein Ligation By A Cascade Enzymatic Scheme” (priority 2022, published 2025)
